# Test results: patent publication US11236352B2, “Transgenic plants resistant to non-protein amino acids” (Yeda Research and Development Co. Ltd., priority 2011, dated 2022)
# How the values were obtained:
# [1] = system: cyt-PheRS Arabidopsis thaliana lines; test: m-Tyr resistance: root growth on MS medium with m-Tyr, cyt-PheRS line; type: in vivo; conditions: cyt-PheRS expressing line, 20 μM m-Tyr in growth media, 7 days
# Procedure: (§1) Root growth of Wt (wild type), Cyt (transgenic plant containing cytosol localized bacterial PheRS) and Dual (transgenic plant containing plastids localized bacterial PheRS). Upper panels: samples grown on media containing 20 μM m-Tyrosine. Bottom panels: non-treated samples.
# (§2) To assess effects of m-Tyr on Arabidopsis root growth, […] of m-Try was added to MS medium. Arabidopsis seeds were sterilized by shaking in 30% bleach. 0.3% Triton X-100 for 10 min, followed by three rinses with sterile distilled water. Petri dishes with seeds on agar medium were cold-stratified for 72 h at 4° C., and were subsequently placed vertically in green-house at 23° C., under 16:8 h light/dark cycle. After 7 days of growth, the root length of the plant was analyzed.
# (§3) The bacterial PheRS genes described in the “Material and Methods” section hereinabove were expressed under the control of the constitutive 35S CaMV promoter. A transit peptide was appended to N-terminus of EcPheRS-α and EcPheRS-β subunits of the bacterial enzyme in order to direct them into the mitochondria and chloroplast of Arabidopsis thaliana. The second constructs pair including PheRS-α and PheRS-β lacked the transit peptides. […] Several independent transgenic lines were obtained, and their resistance to m-Tyr was analyzed. […]
# [2] = system: Arabidopsis thaliana; conditions: in vivo; cited from earlier work
# [3] = system: bacterial PheRS; conditions: incubated with bacterial PheRS; cited from earlier work
# [4] = biological target: bacterial PheRS (Thermus thermophilus, UniProt Q5SGX1+Q5SGX2); conditions: FIG. 1; cited from earlier work
# [5] = system: Arabidopsis thaliana; conditions: added to an agar medium; read-out: concentration that inhibits root growth by 50%; cited from earlier work
# [6] = system: wild-type Arabidopsis thaliana; test: m-Tyr resistance: root growth on MS medium with m-Tyr, wild type; type: in vivo; conditions: wild type plants, 20 μM m-Tyr in growth media, 7 days
# Procedure: as §1, §2, §3
# [7] = biological target: T1, HsmtPheRS (Homo sapiens, UniProt O95363); conditions: mitochondrial enzyme, no editing domain; cited from earlier work
# T1 sequence (O95363 1-451): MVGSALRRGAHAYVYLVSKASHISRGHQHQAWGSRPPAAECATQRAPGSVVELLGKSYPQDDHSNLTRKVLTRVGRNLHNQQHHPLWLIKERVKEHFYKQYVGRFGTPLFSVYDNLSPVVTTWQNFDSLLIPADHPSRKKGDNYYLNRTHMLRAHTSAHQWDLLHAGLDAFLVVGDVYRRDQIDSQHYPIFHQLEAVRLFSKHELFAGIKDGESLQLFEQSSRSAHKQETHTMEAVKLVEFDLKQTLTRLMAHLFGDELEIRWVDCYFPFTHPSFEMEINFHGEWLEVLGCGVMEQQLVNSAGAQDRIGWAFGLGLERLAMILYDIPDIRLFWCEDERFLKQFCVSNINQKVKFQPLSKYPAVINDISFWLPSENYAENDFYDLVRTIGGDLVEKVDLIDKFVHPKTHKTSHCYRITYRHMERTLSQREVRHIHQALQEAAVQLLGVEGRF
# [8] = system: mtp-PheRS Arabidopsis thaliana lines; test: m-Tyr resistance: root growth on MS medium with m-Tyr, mtp-PheRS line; type: in vivo; conditions: lines containing mtp-PheRS, 20 μM m-Tyr in growth media, 7 days
# Procedure: as §1, §2, §3
# Chain of bacterial PheRS (Thermus thermophilus, UniProt Q5SGX1+Q5SGX2) (Q5SGX1 whole entry): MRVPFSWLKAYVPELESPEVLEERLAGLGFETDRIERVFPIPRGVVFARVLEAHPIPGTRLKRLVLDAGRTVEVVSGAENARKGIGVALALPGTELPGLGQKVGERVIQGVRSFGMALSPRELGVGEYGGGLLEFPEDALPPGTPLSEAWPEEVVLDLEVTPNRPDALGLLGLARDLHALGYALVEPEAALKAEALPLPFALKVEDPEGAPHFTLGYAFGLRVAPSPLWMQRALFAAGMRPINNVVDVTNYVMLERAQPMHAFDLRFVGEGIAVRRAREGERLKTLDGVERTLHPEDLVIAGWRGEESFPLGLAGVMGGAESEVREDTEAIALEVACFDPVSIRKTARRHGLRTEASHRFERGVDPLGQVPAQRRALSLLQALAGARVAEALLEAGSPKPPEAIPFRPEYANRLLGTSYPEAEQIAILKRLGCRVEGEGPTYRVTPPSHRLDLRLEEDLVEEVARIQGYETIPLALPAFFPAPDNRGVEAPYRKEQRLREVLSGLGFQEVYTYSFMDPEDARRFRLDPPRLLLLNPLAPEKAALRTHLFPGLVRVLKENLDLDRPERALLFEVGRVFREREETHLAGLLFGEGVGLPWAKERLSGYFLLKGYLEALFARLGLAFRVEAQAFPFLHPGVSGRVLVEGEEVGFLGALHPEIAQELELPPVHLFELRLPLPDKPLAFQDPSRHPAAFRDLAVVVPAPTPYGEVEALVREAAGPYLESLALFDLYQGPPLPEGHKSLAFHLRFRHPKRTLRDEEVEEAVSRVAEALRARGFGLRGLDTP
# Chain of bacterial PheRS (Thermus thermophilus, UniProt Q5SGX1+Q5SGX2) (Q5SGX2 whole entry): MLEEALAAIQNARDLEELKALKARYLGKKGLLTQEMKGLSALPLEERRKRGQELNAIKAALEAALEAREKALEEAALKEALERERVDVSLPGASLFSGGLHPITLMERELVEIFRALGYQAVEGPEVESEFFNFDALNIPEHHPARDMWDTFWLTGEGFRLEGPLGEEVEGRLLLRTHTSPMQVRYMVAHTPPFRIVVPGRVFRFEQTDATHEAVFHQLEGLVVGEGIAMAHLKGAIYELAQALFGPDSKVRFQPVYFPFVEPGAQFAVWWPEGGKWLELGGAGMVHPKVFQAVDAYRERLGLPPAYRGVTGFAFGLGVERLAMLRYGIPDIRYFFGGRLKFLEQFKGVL
smiles,measurement,setting,value
"N[C@@H](Cc1cccc(O)c1)C(=O)O [m-Tyr, meta-tyrosine]",root development,[1],less developed compared to the line containing mtp-PheRS
same,concentration that completely prevents seed germination,[2],50 µM
same,deacylation of m-Tyr from preloaded m-Tyr-tRNA^Phe,[3],deacylated from the tRNA
same,mischarging of tRNA^Phe with m-Tyr,[4],no mischarging
same,IC50,[5],2000 nM
same,root development,[6],didn't develop
same,synthesis of m-Tyr-tRNA^Phe,[7],could stably synthesize m-Tyr-tRNA^Phe
same,root development,[8],developed up to the half of the length of the non-treated plants
